Source: publication PMC4699860 (Biophysical Journal, 2015)

Molecular target: K-Ras4B1-166-GDP (Homo sapiens, UniProt P01116)
Experiment: Microscale thermophoresis
Type: binding
Conditions: MST; nucleotide state not given; pH 7.0, 0.05% TWEEN-20

interaction with K-Ras4B1-166 (in words): abolished the interaction
Substance: Ac-KEKLNSKPGKKKKKKSKTK-NH2 [kR-4B-28]
